Patent US20040110821A1, “GAL3 receptor antagonists for the treatment of affective disorders” (priority 2002, published 2004)

How the values were obtained:
[1] = target: T1, Monoamine Oxidase A (central) (Rattus norvegicus, UniProt P21396); experiment: Central Monoamine Oxidase A Enzyme Assay; type: biochemical; conditions: rat brain as enzyme source
T1 construct: Rat brain was used as the enzyme source; tissue NovaScreen (Hanover, Md.) performed the assay; host or cells: rat brain
Method: The methods to determine activity at monoamine oxidase enzymes (for example, central MAOA and MAOB) are described by Otsuka and Kobayashi, 1964, and were performed by NovaScreen (Hanover, Md.) with the following modifications.
Central Monoamine Oxidase A Enzyme Assay: Rat brain was used as the enzyme source. The enzyme source was pre-incubated with reference compound (RO 41-1049), test compound (Example 92), and subtype selective blocker (100 nM deprenyl) for 60 minutes at 37° C. in 50 mM KPO4 containing 50 μM EDTA and 10 μM dithiothreitol (pH 7.2 at 25° C.). Substrate ([^14C]Serotonin, […]) was then added and incubated for 30 minutes. The reaction was stopped by the addition of 0.5 ml of 1-2M citric acid. Radioactive product was extracted into xylene/ethyl acetate fluor and compared to control values by scintillation spectrophotometry in order to ascertain any interactions of test compound with central MAOA.
(§1) Binding data were analyzed using nonlinear regression and statistical techniques available in the GraphPAD Prism package (San Diego, Calif.). Enzymatic assay data were derived from a standard curve of reference compound data.

human 5HT1B receptor = target: T2, human 5HT1B receptor (Homo sapiens, UniProt P28222); experiment: Radioligand binding at human 5HT1B receptor; conditions: read-out: h5HT1B Ki
T2 construct: expressed in transfected cells
T2 sequence (P28222 whole entry): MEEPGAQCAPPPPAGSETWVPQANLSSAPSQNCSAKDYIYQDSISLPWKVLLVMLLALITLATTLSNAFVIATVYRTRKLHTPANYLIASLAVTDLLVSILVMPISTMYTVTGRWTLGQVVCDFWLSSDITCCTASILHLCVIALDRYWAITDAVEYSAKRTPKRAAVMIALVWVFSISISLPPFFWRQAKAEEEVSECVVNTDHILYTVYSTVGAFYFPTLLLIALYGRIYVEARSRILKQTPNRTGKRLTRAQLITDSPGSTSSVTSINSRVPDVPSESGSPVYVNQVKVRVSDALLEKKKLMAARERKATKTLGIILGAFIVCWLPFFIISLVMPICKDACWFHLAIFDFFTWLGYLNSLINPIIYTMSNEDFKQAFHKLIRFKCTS
Method: (§2) Human 5HT1B, 5HT1D, 5HT1E, 5HT1F, and 5HT7 ReceDtors: The cell lysates of LM(tk-) clonal cell line stably transfected with the genes encoding each of these 5HT receptor-subtypes were prepared as described above. Cell membranes were suspended in 50 mM Tris-HCl buffer (pH 7.4 at 37° C.) containing 10 mM MgCl2, 0.2 mM EDTA, 10 µM pargyline, and 0.1% ascorbate. […] Nonspecific binding was determined in the presence of 10 μM serotonin. The bound radioligand was separated by filtration through GF/B filters using a cell harvester.
as §1

human 5HT1F receptor = target: T3, human 5HT1F receptor (Homo sapiens, UniProt P30939); experiment: Radioligand binding at human 5HT1F receptor; conditions: read-out: h5HT1F Ki
T3 construct: expressed in transfected cells
T3 sequence (P30939 whole entry): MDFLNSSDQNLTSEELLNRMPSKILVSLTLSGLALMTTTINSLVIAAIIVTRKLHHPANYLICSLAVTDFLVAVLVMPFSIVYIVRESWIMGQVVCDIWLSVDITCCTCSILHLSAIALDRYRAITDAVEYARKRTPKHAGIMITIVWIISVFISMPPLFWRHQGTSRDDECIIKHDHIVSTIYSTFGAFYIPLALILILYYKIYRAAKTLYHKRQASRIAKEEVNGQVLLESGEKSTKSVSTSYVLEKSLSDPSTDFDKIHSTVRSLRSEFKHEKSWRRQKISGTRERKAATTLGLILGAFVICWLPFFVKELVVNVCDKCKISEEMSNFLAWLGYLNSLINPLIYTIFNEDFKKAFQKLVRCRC
Method: as §2, §1

DA transporter = target: T4, DA transporter (Rattus norvegicus, UniProt P23977); experiment: Binding at native DA transporter; conditions: read-out: rDA Uptk Ki
T4 construct: native, tissue-derived transporters; from tissue
T4 sequence (P23977 whole entry): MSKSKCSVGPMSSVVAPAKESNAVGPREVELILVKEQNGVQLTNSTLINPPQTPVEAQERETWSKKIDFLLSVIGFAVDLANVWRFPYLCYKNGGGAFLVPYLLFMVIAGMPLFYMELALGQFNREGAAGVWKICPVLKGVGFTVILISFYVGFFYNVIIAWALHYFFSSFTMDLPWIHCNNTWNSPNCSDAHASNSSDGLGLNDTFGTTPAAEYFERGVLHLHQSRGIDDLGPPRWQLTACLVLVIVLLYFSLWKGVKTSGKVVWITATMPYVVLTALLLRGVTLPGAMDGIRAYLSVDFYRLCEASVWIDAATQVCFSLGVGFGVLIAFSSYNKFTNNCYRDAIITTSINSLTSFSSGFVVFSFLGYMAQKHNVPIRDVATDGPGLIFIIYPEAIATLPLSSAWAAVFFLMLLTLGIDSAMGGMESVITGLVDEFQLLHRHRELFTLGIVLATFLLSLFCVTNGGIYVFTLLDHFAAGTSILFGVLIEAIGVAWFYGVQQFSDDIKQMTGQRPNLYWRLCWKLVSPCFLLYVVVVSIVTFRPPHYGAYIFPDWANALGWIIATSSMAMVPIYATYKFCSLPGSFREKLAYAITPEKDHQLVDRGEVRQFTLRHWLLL
Method: The methods to determine binding affinity at native transporters are described in the following publications: 5HT transporter and NE transporter (Owens et al., 1997), and DA transporter (Javitch et al, 1984).
as §1

[2] = target: T5, human α2B adrenergic receptor (Homo sapiens, UniProt P18089); experiment: Binding at human α2B adrenergic receptor; conditions: read-out: hα2B Ki
T5 construct: expressed in transfected cells
T5 sequence (P18089 whole entry): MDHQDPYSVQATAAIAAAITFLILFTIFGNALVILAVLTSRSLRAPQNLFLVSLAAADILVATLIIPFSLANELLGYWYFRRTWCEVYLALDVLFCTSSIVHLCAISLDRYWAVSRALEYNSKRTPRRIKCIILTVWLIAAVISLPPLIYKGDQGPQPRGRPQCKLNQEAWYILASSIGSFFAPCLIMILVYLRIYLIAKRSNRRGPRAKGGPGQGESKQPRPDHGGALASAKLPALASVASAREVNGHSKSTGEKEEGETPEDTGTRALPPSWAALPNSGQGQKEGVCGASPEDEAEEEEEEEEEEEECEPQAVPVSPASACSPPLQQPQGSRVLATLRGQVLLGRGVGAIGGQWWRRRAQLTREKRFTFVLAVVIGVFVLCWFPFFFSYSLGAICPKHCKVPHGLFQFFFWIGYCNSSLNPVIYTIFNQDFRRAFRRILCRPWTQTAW
Source text: (§3) Other receptors: Cell membranes expressing human dopamine D1, D2, D4 and rat D3 receptors were purchased through BioSignal, Inc. (Montreal, Canada). Binding assays using the histamine H1 receptor; dopamine receptors; and α1A, α1B, and α2 adrenergic receptors may be carried out according to the procedures described in U.S. Pat. No. 5,780,485, the disclosure of which is hereby incorporated by reference in its entirety into this application. Binding assays using the dopamine D5 receptor may be carried out according to the procedures described in U.S. Pat. No. 5,882,855, the disclosure of which is hereby incorporated by reference in its entirety into this application. Binding assays for the human α1D adrenergic receptor may be carried out according to the procedures described in U.S. Pat. No. 6,156,518, the disclosure of which is hereby incorporated by reference in its entirety into this application.
as §1

[3] = target: T6, human dopamine D2 receptor (Homo sapiens, UniProt P14416); experiment: Binding at human dopamine D2 receptor; conditions: read-out: hD2 Ki
T6 construct: purchased BioSignal, Inc. (Montreal, Canada)
T6 sequence (P14416 whole entry): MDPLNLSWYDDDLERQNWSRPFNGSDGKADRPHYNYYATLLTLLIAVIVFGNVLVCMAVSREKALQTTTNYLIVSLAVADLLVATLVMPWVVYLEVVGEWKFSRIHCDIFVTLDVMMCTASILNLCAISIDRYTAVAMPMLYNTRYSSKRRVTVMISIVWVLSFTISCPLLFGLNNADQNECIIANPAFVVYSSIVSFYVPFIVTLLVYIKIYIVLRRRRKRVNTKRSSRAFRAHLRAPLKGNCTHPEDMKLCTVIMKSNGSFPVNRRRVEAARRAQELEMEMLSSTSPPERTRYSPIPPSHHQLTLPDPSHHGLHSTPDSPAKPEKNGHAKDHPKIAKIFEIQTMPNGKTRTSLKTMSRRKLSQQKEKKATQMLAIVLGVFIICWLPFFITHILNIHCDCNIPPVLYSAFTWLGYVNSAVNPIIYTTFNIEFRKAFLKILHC
Source text: as §3, §1

rat D3 receptor = target: T7, rat D3 receptor (Rattus norvegicus, UniProt P19020); experiment: Binding at rat dopamine D3 receptor; conditions: read-out: rD3 Ki
T7 construct: purchased BioSignal, Inc. (Montreal, Canada)
T7 sequence (P19020 whole entry): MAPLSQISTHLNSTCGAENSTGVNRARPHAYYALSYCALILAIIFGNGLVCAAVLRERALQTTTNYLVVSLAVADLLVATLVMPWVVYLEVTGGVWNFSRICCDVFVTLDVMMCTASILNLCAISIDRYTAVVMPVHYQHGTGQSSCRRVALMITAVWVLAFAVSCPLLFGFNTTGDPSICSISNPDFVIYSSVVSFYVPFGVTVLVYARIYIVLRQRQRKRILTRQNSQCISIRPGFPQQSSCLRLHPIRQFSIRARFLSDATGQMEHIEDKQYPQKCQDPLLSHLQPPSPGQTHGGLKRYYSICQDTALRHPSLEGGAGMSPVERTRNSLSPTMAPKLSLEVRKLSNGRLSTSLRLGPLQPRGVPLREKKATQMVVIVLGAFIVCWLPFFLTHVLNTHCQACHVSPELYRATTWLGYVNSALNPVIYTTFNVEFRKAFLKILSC
Source text: as §3, §1

[4] = target: T8, human dopamine D4 receptor (Homo sapiens, UniProt P21917); experiment: Binding at human dopamine D4 receptor; conditions: read-out: hD4 Ki
T8 construct: purchased BioSignal, Inc. (Montreal, Canada)
T8 sequence (P21917 whole entry): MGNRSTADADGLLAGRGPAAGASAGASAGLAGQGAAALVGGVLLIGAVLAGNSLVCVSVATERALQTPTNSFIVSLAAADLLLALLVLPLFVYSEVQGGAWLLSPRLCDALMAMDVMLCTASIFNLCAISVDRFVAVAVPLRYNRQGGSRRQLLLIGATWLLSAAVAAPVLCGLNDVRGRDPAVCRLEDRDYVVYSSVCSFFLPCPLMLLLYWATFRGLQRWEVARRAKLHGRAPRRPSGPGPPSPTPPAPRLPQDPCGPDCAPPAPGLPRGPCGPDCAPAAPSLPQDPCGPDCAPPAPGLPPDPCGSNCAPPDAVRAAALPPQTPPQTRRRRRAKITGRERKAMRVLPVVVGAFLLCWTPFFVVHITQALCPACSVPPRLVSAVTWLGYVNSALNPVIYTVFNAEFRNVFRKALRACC
Source text: as §3, §1

[5] = target: T9, human H1 histamine receptor (Homo sapiens, UniProt P35367); experiment: Binding at histamine H1 receptor; conditions: read-out: hH1 Ki
T9 construct: expressed in transfected cells
T9 sequence (P35367 whole entry): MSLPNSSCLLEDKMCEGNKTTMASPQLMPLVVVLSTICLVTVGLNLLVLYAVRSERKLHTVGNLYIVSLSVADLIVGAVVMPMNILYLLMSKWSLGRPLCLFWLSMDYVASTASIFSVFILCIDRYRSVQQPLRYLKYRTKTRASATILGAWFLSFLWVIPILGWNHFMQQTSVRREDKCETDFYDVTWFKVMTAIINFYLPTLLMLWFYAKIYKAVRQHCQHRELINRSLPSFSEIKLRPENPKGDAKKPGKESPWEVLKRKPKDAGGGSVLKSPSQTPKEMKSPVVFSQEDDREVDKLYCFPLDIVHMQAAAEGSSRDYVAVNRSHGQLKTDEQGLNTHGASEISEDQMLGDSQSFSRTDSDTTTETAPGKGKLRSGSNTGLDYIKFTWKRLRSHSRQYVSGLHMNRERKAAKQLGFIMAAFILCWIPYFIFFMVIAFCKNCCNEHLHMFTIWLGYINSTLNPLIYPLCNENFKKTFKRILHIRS
Source text: as §3, §1

T1 sequence (P21396 whole entry): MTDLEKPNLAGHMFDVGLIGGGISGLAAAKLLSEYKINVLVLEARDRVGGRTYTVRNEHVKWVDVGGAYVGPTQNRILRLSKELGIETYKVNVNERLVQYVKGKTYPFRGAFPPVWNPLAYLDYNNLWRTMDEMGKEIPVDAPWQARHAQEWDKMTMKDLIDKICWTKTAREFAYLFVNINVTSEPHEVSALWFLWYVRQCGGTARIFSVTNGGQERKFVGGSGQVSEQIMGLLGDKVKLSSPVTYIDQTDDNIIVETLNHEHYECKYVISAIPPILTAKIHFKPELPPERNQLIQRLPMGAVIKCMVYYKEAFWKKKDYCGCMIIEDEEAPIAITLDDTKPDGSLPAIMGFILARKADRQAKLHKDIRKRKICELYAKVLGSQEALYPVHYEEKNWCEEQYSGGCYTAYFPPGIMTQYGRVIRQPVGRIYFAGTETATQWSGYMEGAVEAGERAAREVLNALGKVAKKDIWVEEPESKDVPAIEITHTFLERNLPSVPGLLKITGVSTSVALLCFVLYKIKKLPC

In the case of O=C1C(=Nc2cccc(C(F)(F)F)c2)c2ccccc2N1c1ccccc1 [Example 92, 1-PHENYL-3-[[3-(TRIFLUOROMETHYL)PHENYL]IMINO]-1,3-DIHYDRO-2H-INDOL-2-ONE], the “% INHIBITION” value [1] is reported as 10%, the Ki (human 5HT1B receptor) is reported as 11.3 µM and the Ki (human 5HT1F receptor) is reported as 5.29 µM. For the same molecule, the Ki (DA transporter) was 17.8 µM, the Ki [2] was > 50 µM and the Ki [3] was 41.4 µM. For the same molecule, the Ki (rat D3 receptor) was 48.2 µM, the Ki [4] was 41.4 µM and the Ki [5] was 39.9 µM.
